Experimental data published in patent US20060069132A1, “Azolecarboxamide herbicides” (priority 2004, published 2006).

Columns and labels:
barnyardgrass [1] = assay: Test B pre-/postemergence herbicide test; format: in vivo, Echinochloa crus-galli; conditions: for Barnyardgrass plant response rating: postemergence; for Plant response rating (0 to 100 scale), Barnyardgrass: 0 is no effect
Procedure, shortened: (§1)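 Seeds were planted and treated preemergence with compounds formulated in a non-phytotoxic solvent mixture containing surfactant, while plants at the 1- to 4-leaf stage (2 to 18 cm) received postemergence sprays. Flooded paddy plants were grown to the 2-leaf stage. After 13 to 15 days in a greenhouse, injury was visually rated 0–100 against untreated controls.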

morningglory = assay: Test B pre-/postemergence herbicide test; format: in vivo, Ipomoea coccinea; conditions: for Morningglory plant response rating: postemergence; for Plant response rating (0 to 100 scale), Morningglory: 0 is no effect
Procedure, shortened: as §1

wheat = assay: Test B postemergence herbicide test; format: in vivo, Triticum aestivum; parameters: key to Wheat plant response rating: 0 = no effect, 100 = complete control; conditions: postemergence
Procedure, shortened: (§2)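 Postemergence plants were sprayed with formulated test chemicals at 2 to 18 cm height (1- to 4-leaf stage); paddy species were grown to the 2-leaf stage. After 13 to 15 days in a greenhouse, injury was rated visually against untreated controls on a 0–100 scale (0 = no effect, 100 = complete control).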

rice = assay: Test B flooded paddy test; format: in vivo, Oryza sativa; conditions: 1000 g ai/ha, scale 0 to 100 (0 no effect, 100 complete control)
Procedure, shortened: as §2

velvetleaf = assay: Test B pre-/postemergence herbicide test; format: in vivo, Abutilon theophrasti; conditions: for Velvetleaf plant response rating: postemergence; for Plant response rating (0 to 100 scale), Velvetleaf: 0 is no effect
Procedure, shortened: (§3)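 Response was scored visually 13 to 15 days after treatment against untreated greenhouse controls, 0 meaning no effect and 100 complete control. Formulations (solvent mixture plus surfactant) went onto soil after planting, onto foliage of 1- to 4-leaf plants, and onto 2-leaf plants in a flooded paddy set including rice and barnyardgrass.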

cocklebur = assay: Test B pre-/postemergence herbicide test; format: in vivo, Xanthium strumarium; conditions: for Cocklebur plant response rating: postemergence; for Plant response rating (0 to 100 scale), Cocklebur: 0 is no effect
Procedure, shortened: as §1

lambsquarters = assay: Test B pre-/postemergence herbicide test; format: in vivo, Chenopodium album; conditions: for Lambsquarters plant response rating: postemergence; for Plant response rating (0 to 100 scale), Lambsquarters: 0 is no effect
Procedure, shortened: as §3

pigweed = assay: Test B pre-/postemergence herbicide test; format: in vivo, Amaranthus retroflexus; conditions: for Pigweed plant response rating: postemergence; for Plant response rating (0 to 100 scale), Pigweed: 0 is no effect
Procedure, shortened: as §3

[2] = system: small flower umbrella sedge; assay: Test B flooded paddy test; format: in vivo, Cyperus difformis; conditions: 1000 g ai/ha, scale 0 to 100 (0 no effect, 100 complete control)
Procedure, shortened: as §2

wild oat = assay: Test B postemergence herbicide test; format: in vivo, Avena fatua; conditions: postemergence
Procedure, shortened: as §2

corn = assay: Test B pre-/postemergence herbicide test; format: in vivo, Zea mays; conditions: for Corn plant response rating: postemergence; for Plant response rating (0 to 100 scale), Corn: 0 is no effect
Procedure, shortened: as §3

giant foxtail = assay: Test B pre-/postemergence herbicide test; format: in vivo, Setaria faberi; conditions: for Foxtail, Giant plant response rating: postemergence; for Plant response rating (0 to 100 scale), Foxtail, Giant: 0 is no effect
Procedure, shortened: as §3

large crabgrass = assay: Test B pre-/postemergence herbicide test; format: in vivo, Digitaria sanguinalis; conditions: for Crabgrass, Large plant response rating: postemergence; for Plant response rating (0 to 100 scale), Crabgrass, Large: 0 is no effect
Procedure, shortened: as §3

Surinam grass = assay: Test B pre-/postemergence herbicide test; format: in vivo, Urochloa decumbens; conditions: for Surinam Grass plant response rating: postemergence; for Plant response rating (0 to 100 scale), Surinam Grass: 0 is no effect
Procedure, shortened: as §3

barnyardgrass [3] = assay: Test B flooded paddy test; format: in vivo, Echinochloa crus-galli; conditions: 1000 g ai/ha, scale 0 to 100 (0 no effect, 100 complete control)
Procedure, shortened: as §2

[4] = 125 g ai/ha, 0 = no effect, 100 = complete control, preemergence
[5] = 125 g ai/ha, visual rating, scale 0 (no effect) to 100 (complete control)
[6] = 500 g ai/ha, visual rating, 0 = no effect, 100 = complete control, preemergence
[7] = 500 g ai/ha, scale 0 to 100, 0 is no effect, 100 is complete control
[8] = 125 g ai/ha, 100 is complete control, preemergence

CCOC(=O)c1cccc(NC(=O)c2cc(C(C)(C)C)nn2C)n1 [Compound 313]
Barnyardgrass plant response rating (0 to 100 scale) (barnyardgrass [1]; [4]): 80
Barnyardgrass plant response rating (barnyardgrass [1]; [5]): 30
Plant response rating, Barnyardgrass (barnyardgrass [1]; [6]): 90
Barnyardgrass plant response rating (barnyardgrass [1]; [7]): 50
Morningglory plant response rating (0 to 100 scale) (morningglory; [4]): 10
Morningglory plant response rating (morningglory; [5]): 0
Plant response rating, Morningglory (morningglory; [6]): 40
Morningglory plant response rating (morningglory; [7]): 80
Wheat plant response rating (wheat; [5]): 0
Wheat plant response rating (wheat; [7]): 10
Rice plant response rating (rice): 80
Velvetleaf plant response rating (velvetleaf; [5]): 60
Plant response rating, Velvetleaf (velvetleaf; [6]): 100
Velvetleaf plant response rating (velvetleaf; [7]): 70
Cocklebur plant response rating (0 to 100 scale) (cocklebur; [4]): 0
Cocklebur plant response rating (cocklebur; [5]): 0
Plant response rating, Cocklebur (cocklebur; [6]): 10
Cocklebur plant response rating (cocklebur; [7]): 90
Lambsquarters plant response rating (0 to 100 scale) (lambsquarters; [4]): 100
Lambsquarters plant response rating (lambsquarters; [5]): 60
Plant response rating, Lambsquarters (lambsquarters; [6]): 100
Lambsquarters plant response rating (lambsquarters; [7]): 90
Pigweed plant response rating (0 to 100 scale) (pigweed; [4]): 100
Pigweed plant response rating (pigweed; [5]): 60
Plant response rating, Pigweed (pigweed; [6]): 100
Pigweed plant response rating (pigweed; [7]): 70
Sedge, Umbrella plant response rating [2]: 80
Oat, Wild plant response rating (wild oat; [5]): 20
Oat, Wild plant response rating (wild oat; [7]): 30
Corn plant response rating (0 to 100 scale) (corn; [4]): 10
Corn plant response rating (corn; [5]): 10
Plant response rating, Corn (corn; [6]): 30
Corn plant response rating (corn; [7]): 20
Foxtail, Giant plant response rating (0 to 100 scale) (giant foxtail; [4]): 40
Foxtail, Giant plant response rating (giant foxtail; [5]): 20
Plant response rating, Foxtail, Giant (giant foxtail; [6]): 100
Foxtail, Giant plant response rating (giant foxtail; [7]): 50
Crabgrass, Large plant response rating (0 to 100 scale) (large crabgrass; [4]): 30
Crabgrass, Large plant response rating (large crabgrass; [5]): 10
Plant response rating, Crabgrass, Large (large crabgrass; [6]): 90
Crabgrass, Large plant response rating (large crabgrass; [7]): 20
Surinam Grass plant response rating (0 to 100 scale) (Surinam grass; [4]): 30
Surinam Grass plant response rating (Surinam grass; [5]): 10
Plant response rating, Surinam Grass (Surinam grass; [6]): 80
Surinam Grass plant response rating (Surinam grass; [7]): 20
Barnyardgrass plant response rating (barnyardgrass [3]): 70

CCn1nc(C(C)(C)C)cc1C(=O)Nc1cccc(OC(F)F)c1 [Compound 332]
Plant response rating (0 to 100 scale), Barnyardgrass (barnyardgrass [1]; [8]): 10
Barnyardgrass plant response rating (barnyardgrass [1]; [5]): 20
Plant response rating, Barnyardgrass (barnyardgrass [1]; [6]): 60
Barnyardgrass plant response rating (barnyardgrass [1]; [7]): 60
Plant response rating (0 to 100 scale), Morningglory (morningglory; [8]): 10
Morningglory plant response rating (morningglory; [5]): 40
Plant response rating, Morningglory (morningglory; [6]): 30
Morningglory plant response rating (morningglory; [7]): 70
Wheat plant response rating (wheat; [5]): 20
Wheat plant response rating (wheat; [7]): 30
Rice plant response rating (rice): 50
Plant response rating (0 to 100 scale), Velvetleaf (velvetleaf; [8]): 30
Velvetleaf plant response rating (velvetleaf; [5]): 60
Velvetleaf plant response rating (velvetleaf; [7]): 90
Plant response rating (0 to 100 scale), Cocklebur (cocklebur; [8]): 0
Cocklebur plant response rating (cocklebur; [5]): 30
Plant response rating, Cocklebur (cocklebur; [6]): 0
Cocklebur plant response rating (cocklebur; [7]): 70
Plant response rating (0 to 100 scale), Lambsquarters (lambsquarters; [8]): 90
Lambsquarters plant response rating (lambsquarters; [5]): 80
Plant response rating, Lambsquarters (lambsquarters; [6]): 100
Lambsquarters plant response rating (lambsquarters; [7]): 100
Plant response rating (0 to 100 scale), Pigweed (pigweed; [8]): 100
Pigweed plant response rating (pigweed; [5]): 100
Plant response rating, Pigweed (pigweed; [6]): 100
Pigweed plant response rating (pigweed; [7]): 100
Sedge, Umbrella plant response rating [2]: 90
Oat, Wild plant response rating (wild oat; [5]): 40
Oat, Wild plant response rating (wild oat; [7]): 60
Plant response rating (0 to 100 scale), Corn (corn; [8]): 0
Corn plant response rating (corn; [5]): 0
Plant response rating, Corn (corn; [6]): 0
Corn plant response rating (corn; [7]): 10
Plant response rating (0 to 100 scale), Foxtail, Giant (giant foxtail; [8]): 20
Foxtail, Giant plant response rating (giant foxtail; [5]): 30
Plant response rating, Foxtail, Giant (giant foxtail; [6]): 60
Foxtail, Giant plant response rating (giant foxtail; [7]): 50
Plant response rating (0 to 100 scale), Crabgrass, Large (large crabgrass; [8]): 40
Crabgrass, Large plant response rating (large crabgrass; [5]): 50
Plant response rating, Crabgrass, Large (large crabgrass; [6]): 100
Crabgrass, Large plant response rating (large crabgrass; [7]): 80
Plant response rating (0 to 100 scale), Surinam Grass (Surinam grass; [8]): 10
Surinam Grass plant response rating (Surinam grass; [5]): 20
Plant response rating, Surinam Grass (Surinam grass; [6]): 20
Surinam Grass plant response rating (Surinam grass; [7]): 40
Barnyardgrass plant response rating (barnyardgrass [3]): 60

CCn1nc(C(C)(C)C)cc1C(=O)Nc1cc(C(=S)N(C)C)ccn1 [Compound 334]
Plant response rating (0 to 100 scale), Barnyardgrass (barnyardgrass [1]; [8]): 90
Barnyardgrass plant response rating (barnyardgrass [1]; [5]): 0
Plant response rating, Barnyardgrass (barnyardgrass [1]; [6]): 100
Barnyardgrass plant response rating (barnyardgrass [1]; [7]): 60
Plant response rating (0 to 100 scale), Morningglory (morningglory; [8]): 0
Morningglory plant response rating (morningglory; [5]): 50
Plant response rating, Morningglory (morningglory; [6]): 70
Morningglory plant response rating (morningglory; [7]): 80
Wheat plant response rating (wheat; [5]): 10
Wheat plant response rating (wheat; [7]): 20
Rice plant response rating (rice): 80
Plant response rating (0 to 100 scale), Velvetleaf (velvetleaf; [8]): 100
Velvetleaf plant response rating (velvetleaf; [5]): 50
Velvetleaf plant response rating (velvetleaf; [7]): 60
Plant response rating (0 to 100 scale), Cocklebur (cocklebur; [8]): 60
Cocklebur plant response rating (cocklebur; [5]): 20
Plant response rating, Cocklebur (cocklebur; [6]): 100
Cocklebur plant response rating (cocklebur; [7]): 70
Plant response rating (0 to 100 scale), Lambsquarters (lambsquarters; [8]): 100
Lambsquarters plant response rating (lambsquarters; [5]): 70
Plant response rating, Lambsquarters (lambsquarters; [6]): 100
Lambsquarters plant response rating (lambsquarters; [7]): 90
Plant response rating (0 to 100 scale), Pigweed (pigweed; [8]): 60
Pigweed plant response rating (pigweed; [5]): 40
Plant response rating, Pigweed (pigweed; [6]): 100
Pigweed plant response rating (pigweed; [7]): 70
Sedge, Umbrella plant response rating [2]: 80
Oat, Wild plant response rating (wild oat; [5]): 20
Oat, Wild plant response rating (wild oat; [7]): 30
Plant response rating (0 to 100 scale), Corn (corn; [8]): 20
Corn plant response rating (corn; [5]): 0
Plant response rating, Corn (corn; [6]): 70
Corn plant response rating (corn; [7]): 20
Plant response rating (0 to 100 scale), Foxtail, Giant (giant foxtail; [8]): 90
Foxtail, Giant plant response rating (giant foxtail; [5]): 10
Plant response rating, Foxtail, Giant (giant foxtail; [6]): 100
Foxtail, Giant plant response rating (giant foxtail; [7]): 60
Plant response rating (0 to 100 scale), Crabgrass, Large (large crabgrass; [8]): 90
Crabgrass, Large plant response rating (large crabgrass; [5]): 10
Plant response rating, Crabgrass, Large (large crabgrass; [6]): 100
Crabgrass, Large plant response rating (large crabgrass; [7]): 50
Plant response rating (0 to 100 scale), Surinam Grass (Surinam grass; [8]): 80
Surinam Grass plant response rating (Surinam grass; [5]): 20
Plant response rating, Surinam Grass (Surinam grass; [6]): 100
Surinam Grass plant response rating (Surinam grass; [7]): 50
Barnyardgrass plant response rating (barnyardgrass [3]): 90
